Reference: patent publication US7632972B2, “Compounds and methods for treatment of cancer and modulation of programmed cell death for melanoma and other cancer cells” (The Board of Trustees of the University of Illionis, priority 2003, dated 2009)

Legend:
Format in all cases: cell-based, human
CCRF-CEM = test: NCI 60 cell line screen (SRB), Leukemia
Excerpt: (§1) The operation of this screen utilizes 60 different human tumor cell lines, representing leukemia, melanoma and cancers of the lung, colon, brain, ovary, breast, prostate, and kidney. The aim is to prioritize for further evaluation, synthetic compounds or natural product samples showing selective growth inhibition or cell killing of particular tumor cell lines. This screen is unique in that the complexity of a 60 cell line dose response produced by a given compound results in a biological response pattern which can be utilized in pattern recognition algorithms. Using these algorithms, it is possible to assign a putative mechanism of action to a test compound, or to determine that the response pattern is unique and not similar to that of any of the standard prototype compounds included in the NCl database (see DTP Overview tab). In addition, following characterization of various cellular molecular targets in the 60 cell lines, it may be possible to select compounds most likely to interact with a specific molecular target.
(§2) The human tumor cell lines of the cancer screening panel are grown in RPMI 1640 medium containing 5% fetal bovine serum and 2 mM L-glutamine. For a typical screening experiment, cells are inoculated into 96 well microtiter plates in 100 μL at plating densities ranging from 5,000 to 40,000 cells/well depending on the doubling time of individual cell lines. After cell inoculation, the microtiter plates are incubated at 37° C., 5% CO2, 95% air and 100% relative humidity for 24 h prior to addition of experimental drugs.
(§3) After 24 h, two plates of each cell line are fixed in situ with TCA, to represent a measurement of the cell population for each cell line at the time of drug addition (Tz). Experimental drugs are solubilized in dimethyl sulfoxide at 400-fold the desired final maximum test concentration and stored frozen prior to use. At the time of drug addition, an aliquot of frozen concentrate is thawed and diluted to twice the desired final maximum test concentration with complete medium containing 50 μg/ml gentamicin. Additional four, 10-fold or ½ log serial dilutions are made to provide a total of five drug concentrations plus control. Aliquots of 100 μl of these different drug dilutions are added to the appropriate microtiter wells already containing 100 μl of medium, resulting in the required final drug concentrations.
(§4) Following drug addition, the plates are incubated for an additional 48 h at 37° C., 5% CO2, 95% air, and 100% relative humidity. For adherent cells, the assay is terminated by the addition of cold TCA. Cells are fixed in situ by the gentle addition of 50 μl of cold 50% (w/v) TCA (final concentration, 10% TCA) and incubated for 60 minutes at 4° C. The supernatant is discarded, and the plates are washed five times with tap water and air dried. Sulforhodamine B (SRB) solution (100 μl) at 0.4% (w/v) in 1% acetic acid is added to each well, and plates are incubated for 10 minutes at room temperature. After staining, unbound dye is removed by washing five times with 1% acetic acid and the plates are air dried. Bound stain is subsequently solubilized with 10 mM trizma base, and the absorbance is read on an automated plate reader at a wavelength of 515 nm. For suspension cells, the methodology is the same except that the assay is terminated by fixing settled cells at the bottom of the wells by gently adding 50 μl of 80% TCA (final concentration, 16% TCA). Using the seven absorbance measurements [time zero, (Tz), control growth, (C), and test growth in the presence of drug at the five concentration levels (Ti)], the percentage growth is calculated at each of the drug concentrations levels. Percentage growth inhibition is calculated as: [(Ti−Tz)/(C−Tz)]×100 for concentrations for which Ti>/=Tz [(Ti−Tz)/Tz]×100 for concentrations for which Ti<Tz.
(§5) Three dose response parameters are calculated for each experimental agent. […]

K-562 = test: NCI 60 cell line screen (SRB), Leukemia
Excerpt: as §1, §2, §3, §4, §5

IGROV1 = test: NCI 60 cell line screen (SRB), Ovarian Cancer
Excerpt: as §1, §2, §3, §4, §5

OVCAR-3 = test: NCI 60 cell line screen (SRB), Ovarian Cancer
Excerpt: as §1, §2, §3, §4, §5

OVCAR-4 = test: NCI 60 cell line screen (SRB), Ovarian Cancer
Excerpt: as §1, §2, §3, §4, §5

OVCAR-5 = test: NCI 60 cell line screen (SRB), Ovarian Cancer
Excerpt: as §1, §2, §3, §4, §5

OVCAR-8 = test: NCI 60 cell line screen (SRB), Ovarian Cancer
Excerpt: as §1, §2, §3, §4, §5

SK-OV-3 = test: NCI 60 cell line screen (SRB), Ovarian Cancer
Excerpt: as §1, §2, §3, §4, §5

MDA-MB-231/ATCC = test: NCI 60 cell line screen (SRB), Breast Cancer
Excerpt: as §1, §2, §3, §4, §5

[1] = read-out: LC50 (the source's name)

COc1cccc(CCNC(=O)CC(c2ccccc2)(c2ccccc2)c2ccccc2)c1 [Compound Z3]
GI50 (CCRF-CEM): 8.16 µM
TGI (CCRF-CEM): >1.00E−04
Percent Growth (CCRF-CEM; Log10 Concentration −4.0): 34%
Percent Growth (CCRF-CEM; Log10 Concentration −5.0): 48%
Percent Growth (CCRF-CEM; Log10 Concentration −6.0): 74%
Percent Growth (CCRF-CEM; Log10 Concentration −7.0): 94%
Percent Growth (CCRF-CEM; Log10 Concentration −8.0): 62%
CC50 (CCRF-CEM; [1]): > 100 µM
GI50 (K-562; K-562): 6.03 µM
TGI (K-562; K-562): >1.00E−04
Percent Growth (K-562; K-562, Log10 Concentration −4.0): 32%
Percent Growth (K-562; K-562, Log10 Concentration −5.0): 36%
Percent Growth (K-562; K-562, Log10 Concentration −6.0): 100%
Percent Growth (K-562; K-562, Log10 Concentration −7.0): 100%
Percent Growth (K-562; K-562, Log10 Concentration −8.0): 102%
CC50 (K-562; K-562, read-out: LC50 (the source's name)): > 100 µM
TGI (IGROV1; IGROV1): >1.00E−04
Percent Growth (IGROV1; IGROV1, Log10 Concentration −4.0): 10%
Percent Growth (IGROV1; IGROV1, Log10 Concentration −5.0): 22%
Percent Growth (IGROV1; IGROV1, Log10 Concentration −6.0): 23%
Percent Growth (IGROV1; IGROV1, Log10 Concentration −7.0): 63%
Percent Growth (IGROV1; IGROV1, Log10 Concentration −8.0): 29%
CC50 (IGROV1; IGROV1, read-out: LC50 (the source's name)): > 100 µM
GI50 (OVCAR-3; OVCAR-3): 4.77 µM
TGI (OVCAR-3; OVCAR-3): >1.00E−04
Percent Growth (OVCAR-3; OVCAR-3, Log10 Concentration −4.0): 19%
Percent Growth (OVCAR-3; OVCAR-3, Log10 Concentration −5.0): 40%
Percent Growth (OVCAR-3; OVCAR-3, Log10 Concentration −6.0): 71%
Percent Growth (OVCAR-3; OVCAR-3, Log10 Concentration −7.0): 102%
Percent Growth (OVCAR-3; OVCAR-3, Log10 Concentration −8.0): 90%
CC50 (OVCAR-3; OVCAR-3, read-out: LC50 (the source's name)): > 100 µM
GI50 (OVCAR-4; OVCAR-4): > 100 µM
TGI (OVCAR-4; OVCAR-4): >1.00E−04
Percent Growth (OVCAR-4; OVCAR-4, Log10 Concentration −4.0): 92%
Percent Growth (OVCAR-4; OVCAR-4, Log10 Concentration −5.0): 80%
Percent Growth (OVCAR-4; OVCAR-4, Log10 Concentration −6.0): 82%
Percent Growth (OVCAR-4; OVCAR-4, Log10 Concentration −7.0): 106%
Percent Growth (OVCAR-4; OVCAR-4, Log10 Concentration −8.0): 92%
CC50 (OVCAR-4; OVCAR-4, read-out: LC50 (the source's name)): > 100 µM
GI50 (OVCAR-5; OVCAR-5): 11.7 µM
TGI (OVCAR-5; OVCAR-5): >1.00E−04
Percent Growth (OVCAR-5; OVCAR-5, Log10 Concentration −4.0): 15%
Percent Growth (OVCAR-5; OVCAR-5, Log10 Concentration −5.0): 53%
Percent Growth (OVCAR-5; OVCAR-5, Log10 Concentration −6.0): 83%
Percent Growth (OVCAR-5; OVCAR-5, Log10 Concentration −7.0): 87%
Percent Growth (OVCAR-5; OVCAR-5, Log10 Concentration −8.0): 90%
CC50 (OVCAR-5; OVCAR-5, read-out: LC50 (the source's name)): > 100 µM
GI50 (OVCAR-8; OVCAR-8): 4.98 µM
TGI (OVCAR-8; OVCAR-8): 4.77E−05
Percent Growth (OVCAR-8; OVCAR-8, Log10 Concentration −4.0): −16%
Percent Growth (OVCAR-8; OVCAR-8, Log10 Concentration −5.0): 33%
Percent Growth (OVCAR-8; OVCAR-8, Log10 Concentration −6.0): 88%
Percent Growth (OVCAR-8; OVCAR-8, Log10 Concentration −7.0): 117%
Percent Growth (OVCAR-8; OVCAR-8, Log10 Concentration −8.0): 116%
CC50 (OVCAR-8; OVCAR-8, read-out: LC50 (the source's name)): > 100 µM
GI50 (SK-OV-3; SK-OV-3): > 100 µM
TGI (SK-OV-3; SK-OV-3): >1.00E−04
Percent Growth (SK-OV-3; SK-OV-3, Log10 Concentration −4.0): 87%
Percent Growth (SK-OV-3; SK-OV-3, Log10 Concentration −5.0): 84%
Percent Growth (SK-OV-3; SK-OV-3, Log10 Concentration −6.0): 97%
Percent Growth (SK-OV-3; SK-OV-3, Log10 Concentration −7.0): 98%
Percent Growth (SK-OV-3; SK-OV-3, Log10 Concentration −8.0): 92%
CC50 (SK-OV-3; SK-OV-3, read-out: LC50 (the source's name)): > 100 µM
GI50 (MDA-MB-231/ATCC): > 100 µM
TGI (MDA-MB-231/ATCC): >1.00E−04
Percent Growth (MDA-MB-231/ATCC; Log10 Concentration −4.0): 147%
Percent Growth (MDA-MB-231/ATCC; Log10 Concentration −5.0): 75%
Percent Growth (MDA-MB-231/ATCC; Log10 Concentration −6.0): 59%
Percent Growth (MDA-MB-231/ATCC; Log10 Concentration −7.0): 69%
Percent Growth (MDA-MB-231/ATCC; Log10 Concentration −8.0): 68%
CC50 (MDA-MB-231/ATCC; [1]): > 100 µM
